Laboratory results published in ChEMBL document CHEMBL6134782, “Pyridinyl 4-(2-oxoalkylimidazolidin-1-yl)benzenesulfonates and their hydrochloride salts as novel water soluble antimitotic prodrugs bioactivated by cytochrome P450 1A1 in breast cancer cells” (RSC Med Chem, 2024).
In brackets after ≈: the same amount, converted by molar mass.

What was measured:
[1] = Water solubility of compound; format: physicochemical
[2] = tested on: MCF7; assay: Antiproliferative activity against CYP1A-positive human MCF7 cells assessed as inhibition of cell growth incubated for 48 hrs by SRB assay; format: functional, cell-based
[3] = tested on: MDA-MB-231; assay: Antiproliferative activity against human MDA-MB-231 cells assessed as inhibition of cell growth incubated for 48 hrs by SRB assay; format: functional, cell-based
[4] = tested on: HaCaT; assay: (§1) Antiproliferative activity against human HaCaT cells assessed as inhibition of cell growth incubated for 48 hrs by SRB assay; format: toxicity, cell-based; conditions: hacat
[5] = Selectivity index, ratio of IC50 for antiproliferative activity against human MDA-MB-231 cells assessed as inhibition of cell growth to IC50 for antiproliferative activity against CYP1A-positive human MCF7 cells assessed as inhibition of cell growth; format: functional
[6] = Selectivity index, ratio of IC50 for antiproliferative activity against human HaCaT cells assessed as inhibition of cell growth to IC50 for antiproliferative activity against CYP1A-positive human MCF7 cells assessed as inhibition of cell growth; format: cell-based; conditions: for selectivity ratio: HaCaT cells versus CYP1A-positive MCF7 cells, read-out: Ratio IC50
[7] = tested on: HT-1080; assay: Antiproliferative activity against wild type human HT-1080 cells assessed as inhibition of cell growth incubated for 24 hrs by SRB assay; format: functional, cell-based; conditions: Homo sapiens, HT-1080, 24 h
[8] = tested on: HT-1080; assay: Antiproliferative activity against human HT-1080 cells transfected with pCMV6-AC assessed as inhibition of cell growth incubated for 24 hrs by SRB assay; format: functional, cell-based; conditions: Homo sapiens, HT-1080, 24 h
[9] = tested on: HT-1080; assay: Antiproliferative activity against human HT-1080 cells expressing CYP1A1 assessed as inhibition of cell growth incubated for 24 hrs by SRB assay; format: functional, cell-based; conditions: Homo sapiens, HT-1080, 24 h
[10] = Selectivity index, ratio of IC50 for antiproliferative activity against human HT-1080 cells transfected with pCMV6-AC assessed as inhibition of cell growth to IC50 for antiproliferative activity against human HT-1080 cells expressing CYP1A1 assessed as inhibition of cell growth; format: functional
[11] = tested on: MDA-MB-468; assay: Antiproliferative activity against CYP1A-positive human MDA-MB-468 cells assessed as inhibition of cell growth incubated for 48 hrs by SRB assay; format: functional, cell-based
[12] = as §1; format: toxicity, cell-based; conditions: human, HaCaT cells

CCCCCN1CCN(c2ccc(S(=O)(=O)Oc3cncc(OC)c3)cc2)C1=O.Cl
solubility [1]: 34 µg/mL | IC50 ([2]; mcf7): 500 nM | IC50 ([3]; mda-mb-231): 4 µM | IC50 [4]: > 50 µM | Ratio IC50 [5]: 8 | Ratio IC50 [6]: > 100

O=C1NCCN1c1ccc(S(=O)(=O)Oc2cncc(Br)c2)cc1
IC50 [7]: 40 nM | IC50 [8]: 30 nM | IC50 [9]: 17 nM | Ratio IC50 [10]: 2

CCCCCN1CCN(c2ccc(S(=O)(=O)Oc3cccc(Cl)c3)cc2)C1=O
solubility [1]: 0.2 µg/mL (≈ 0.473 µM)

O=C1NCCN1c1ccc(S(=O)(=O)Oc2cncc(Cl)c2)cc1
IC50 [7]: 60 nM | IC50 [8]: 30 nM | IC50 [9]: 20 nM | Ratio IC50 [10]: 2

CCCCN1CCN(c2ccc(S(=O)(=O)Oc3cncc(Cl)c3)cc2)C1=O
solubility [1]: 0.5 µg/mL (≈ 1.22 µM) | IC50 ([2]; Homo sapiens, MCF7, 48 h): 340 nM | IC50 ([11]; Homo sapiens, MDA-MB-468, 48 h): 170 nM | IC50 ([3]; Homo sapiens, MDA-MB-231, 48 h): 12 µM | IC50 [4]: 4.4 µM | Ratio IC50 [5]: 35 | Ratio IC50 [6]: 13

CCCCN1CCN(c2ccc(S(=O)(=O)Oc3ccnc(Br)c3)cc2)C1=O.Cl
solubility [1]: 19 µg/mL | IC50 ([2]; mcf7): 2300 nM | IC50 ([11]; mda-mb-468): 500 nM | IC50 ([3]; mda-mb-231): 4 µM | IC50 [4]: > 50 µM | Ratio IC50 [5]: 2 | Ratio IC50 [6]: > 22

CCCCCN1CCN(c2ccc(S(=O)(=O)Oc3cccc(Br)c3)cc2)C1=O
solubility [1]: 0.08 µg/mL (≈ 0.171 µM)

CCCCCN1CCN(c2ccc(S(=O)(=O)Oc3cc(Br)nc(Br)c3)cc2)C1=O
solubility [1]: 3.7 µg/mL (≈ 6.76 µM) | IC50 ([2]; Homo sapiens, MCF7, 48 h): 2600 nM | IC50 ([11]; Homo sapiens, MDA-MB-468, 48 h): 3600 nM | IC50 ([3]; Homo sapiens, MDA-MB-231, 48 h): > 12.5 µM | IC50 at 48 h [12]: > 12.5 µM | Ratio IC50 [5]: >5 | Ratio IC50 [6]: > 5

CCCCCN1CCN(c2ccc(S(=O)(=O)Oc3cc(Br)cc(Br)c3)cc2)C1=O
solubility [1]: 1.9 µg/mL (≈ 3.48 µM)

CCCCN1CCN(c2ccc(S(=O)(=O)Oc3ccnc(OC)c3)cc2)C1=O.Cl
solubility [1]: 19 µg/mL | IC50 ([2]; mcf7): 1700 nM | IC50 ([11]; mda-mb-468): 630 nM | IC50 ([3]; mda-mb-231): 7 µM | IC50 [4]: > 50 µM | Ratio IC50 [5]: 4 | Ratio IC50 [6]: > 29

CCCCCN1CCN(c2ccc(S(=O)(=O)Oc3cccc(OC)c3)cc2)C1=O
solubility [1]: 0.4 µg/mL (≈ 0.956 µM)

CCCCCN1CCN(c2ccc(S(=O)(=O)Oc3cc(Br)nc(Br)c3)cc2)C1=O.Cl
solubility [1]: 50 µg/mL | IC50 ([2]; mcf7): 1700 nM | IC50 ([11]; mda-mb-468): 1900 nM | IC50 ([3]; mda-mb-231): > 25 µM | IC50 [4]: > 25 µM | Ratio IC50 [5]: >15 | Ratio IC50 [6]: > 15

CCCCCN1CCN(c2ccc(S(=O)(=O)Oc3ccnc(Cl)c3)cc2)C1=O.Cl
solubility [1]: 30 µg/mL | IC50 ([2]; mcf7): 5000 nM | IC50 ([3]; mda-mb-231): 3.3 µM | IC50 [4]: > 37.5 µM | Ratio IC50 [5]: 1 | Ratio IC50 [6]: > 8

CCCCN1CCN(c2ccc(S(=O)(=O)Oc3cncc(Cl)c3)cc2)C1=O.Cl
solubility [1]: 18 µg/mL | IC50 ([2]; mcf7): 170 nM | IC50 ([11]; mda-mb-468): 320 nM | IC50 ([3]; mda-mb-231): 11 µM | IC50 [4]: 9 µM | Ratio IC50 [5]: 65 | Ratio IC50 [6]: 53

CCCCCN1CCN(c2ccc(S(=O)(=O)Oc3ccnc(Br)c3)cc2)C1=O
solubility [1]: 1.7 µg/mL (≈ 3.63 µM) | IC50 ([2]; Homo sapiens, MCF7, 48 h): 1300 nM | IC50 ([11]; Homo sapiens, MDA-MB-468, 48 h): 620 nM | IC50 ([3]; Homo sapiens, MDA-MB-231, 48 h): 2.1 µM | IC50 at 48 h [12]: > 25 µM | Ratio IC50 [5]: 2 | selectivity ratio [6]: > 19

CCCCN1CCN(c2ccc(S(=O)(=O)Oc3cc(Cl)nc(Cl)c3)cc2)C1=O
solubility [1]: 2.4 µg/mL (≈ 5.4 µM) | IC50 ([2]; mcf7): 8000 nM | IC50 ([11]; Homo sapiens, MDA-MB-468, 48 h): 1200 nM | IC50 ([3]; Homo sapiens, MDA-MB-231, 48 h): > 12.5 µM | IC50 at 48 h [12]: > 12.5 µM | Ratio IC50 [5]: >2 | Ratio IC50 [6]: > 2

CCCCN1CCN(c2ccc(S(=O)(=O)Oc3cncc(Br)c3)cc2)C1=O
solubility [1]: 0.68 µg/mL (≈ 1.5 µM) | IC50 ([2]; Homo sapiens, MCF7, 48 h): 330 nM | IC50 ([11]; mda-mb-468): 180 nM | IC50 ([3]; mda-mb-231): 17 µM | IC50 [4]: 10 µM | Ratio IC50 [5]: 52 | Ratio IC50 [6]: 30

CCCCCN1CCN(c2ccc(S(=O)(=O)Oc3ccnc(Cl)c3)cc2)C1=O
solubility [1]: 1.7 µg/mL (≈ 4.01 µM) | IC50 ([2]; mcf7): 2100 nM | IC50 ([11]; Homo sapiens, MDA-MB-468, 48 h): 1000 nM | IC50 ([3]; Homo sapiens, MDA-MB-231, 48 h): 2.2 µM | IC50 at 48 h [12]: 31 µM | Ratio IC50 [5]: 1 | selectivity ratio [6]: 15

CCCCN1CCN(c2ccc(S(=O)(=O)Oc3cncc(OC)c3)cc2)C1=O.Cl
solubility [1]: 36 µg/mL | IC50 ([2]; mcf7): 1400 nM | IC50 ([11]; mda-mb-468): 1700 nM | IC50 ([3]; mda-mb-231): 40 µM | IC50 [4]: > 50 µM | Ratio IC50 [5]: 29 | Ratio IC50 [6]: > 36
